From the METLIN SMRT retention time set (Domingo-Almenara et al. 2019)

Assay: gradient 5% acetonitrile 3 min, to 50% in 2 min, to 85% in 15 min, held 3 min, 100 µL/min
Conditions: column: Zorbax Extend-C18 2.1 x 50 mm; eluents: water / acetonitrile, 0.1% formic acid
Procedure, shortened: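 Standards, all pure, were combined into mixtures of ~100 molecules and run at 100 μL/min on a Zorbax Extend-C18 column (2.1 × 50 mm, 1.8 μm) with water and acetonitrile, each containing 0.1% formic acid. A coupled quadrupole time-of-flight mass spectrometer operated in positive and negative ionization mode. Retention time values come from computationally picked adduct peaks, each inspected manually.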

Work on `CN(C(=O)CSc1nnc(-c2ccc(Cl)cc2)o1)C1CCCCC1` yielded an RP-LC retention time of 1090 s.

In the case of `Cn1cnc(S(=O)(=O)N2CC(n3cc(C(=O)N4CCOCC4)nn3)C2)c1`, the RP-LC retention time is reported as 575 s.

With `CCCc1cc(N2CCN(C(=O)c3ccc(N(C)C)cc3)CC2)nc2nnc(CC)n12` the RP-LC retention time was 649 s.

Compound `Cc1ccc(C(=O)NCC2CCCO2)cc1` (configuration not stated) has an RP-LC retention time of 642 s.

Work on `Cc1ccc(Cn2nc3ccc(S(=O)(=O)N4CCCCCC4)cn3c2=O)cc1C` yielded an RP-LC retention time of 1070 s.

`O=c1c2scc(-c3ccc(F)cc3)c2ncn1Cc1cc(=O)n2ccccc2n1` showed an RP-LC retention time of 810 s.

Work on `CCCOc1nc2ccccc2nc1N1CCCC(C(=O)NC(C)c2ccccc2)C1` (configuration not stated) yielded an RP-LC retention time of 1230 s.

`CCN1CCN(C(=O)c2nnc(-c3ccc(S(=O)(=O)N4CCCC4)cc3)o2)CC1` showed an RP-LC retention time of 623 s.

In the case of `COc1cccc(C2CC(c3ccc(C)c(C)c3)=NC3(CCN(C(C)=O)CC3)N2)c1O` (configuration not stated), the RP-LC retention time is reported as 694 s.

`Cc1ccc(NC(=O)C2CCCN(S(=O)(=O)c3c[nH]c(C(=O)N4CCCC4)c3)C2)cc1F` (configuration not stated) showed an RP-LC retention time of 859 s.

With `Cc1cccc(NC(=O)C2CCCN(S(=O)(=O)N3CCC(C)CC3)C2)c1C` (configuration not stated) the RP-LC retention time was 1030 s.

Compound `CCN(CC)CCCC(C)Nc1nc(/C=C/c2cc(OC)c(OC)cc2Cl)nc2cc(Cl)ccc12` (configuration not stated) has an RP-LC retention time of 595 s.

With `CCOc1ccc(CCNC(=O)c2cc3sc(Cl)cc3n2CC)cc1OCC` the RP-LC retention time was 1200 s.

Compound `CCN(CC)S(=O)(=O)c1ccc(NC(=O)N2CCC(C(=O)Nc3ccc(Cl)cc3)CC2)s1` has an RP-LC retention time of 931 s.

For `CCc1nc2ccc(CCC(=O)NCCCc3ccccc3)cc2[nH]1`, the RP-LC retention time was 614 s.

With `COc1ccc(-c2nnc(CC(=O)NCC3CC3)o2)cc1` the RP-LC retention time was 732 s.

Work on `CN(C)CCn1nnc2cc(-c3noc(-c4ccc(Br)cc4)n3)ccc21` yielded an RP-LC retention time of 727 s.

Work on `Cc1ccc(CNC(=O)C2CCN(S(=O)(=O)c3c(C)[nH]c(C)c3C(=O)N3CCCC3)CC2)o1` yielded an RP-LC retention time of 679 s.

Compound `Cc1ccc(CNC(=O)Cn2nc3c(Oc4cc(C)cc(C)c4)nccn3c2=O)cc1` has an RP-LC retention time of 943 s.

In the case of `CCOC(=O)CCC(=O)Nc1nnc2n1CCS2`, the RP-LC retention time is reported as 558 s.

`Cc1ccc(C2c3[nH]c4ccccc4c3CCN2C(=O)C2CCC2)cc1` (configuration not stated) showed an RP-LC retention time of 1200 s.

Compound `Cc1ccc(NC(=O)Cn2c(N3CCCC3)nc(C)cc2=O)cc1` has an RP-LC retention time of 636 s.

`CSc1cccc(NC(=O)NCC(c2cccnc2)c2c[nH]c3ccccc23)c1` (configuration not stated) gave an RP-LC retention time of 677 s.

Compound `COc1ccc(N2CCN(c3cc(SCC(=O)Nc4ccc(OC)c(Cl)c4)ncn3)CC2)cc1` has an RP-LC retention time of 967 s.

With `Cc1ccc(C)c(-c2csc(Nc3ccc(S(=O)(=O)Nc4cc(C)on4)cc3)n2)c1` the RP-LC retention time was 1070 s.

`Cn1ncc(N2CCCC(CC(=O)N3CCSCC3)C2)cc1=O` (configuration not stated) gave an RP-LC retention time of 666 s.

Work on `CCOc1ccc(NC(=O)Cn2nc3c(N4CCSCC4)nccn3c2=O)cc1` yielded an RP-LC retention time of 816 s.

Compound `CCCN1C(=O)c2cc(C(=O)NCc3cccc(C)c3)nn2CC1(C)C(=O)NC1CCCC1` (configuration not stated) has an RP-LC retention time of 866 s.

In the case of `O=C(CN1C(=O)CCS(=O)(=O)c2ccccc21)Nc1ccc(F)cc1`, the RP-LC retention time is reported as 748 s.

With `CN(C)c1cccc(C(=O)Nc2cc(-c3ccsc3)no2)c1` the RP-LC retention time was 927 s.

Compound `CCCn1cc(S(=O)(=O)Nc2cccc(F)c2C)c2cccnc21` has an RP-LC retention time of 861 s.

Compound `CCn1c(N2CCCC(C(=O)NCc3ccc(OC)cc3OC)C2)cc(=O)n(C)c1=O` (configuration not stated) has an RP-LC retention time of 752 s.

Work on `CN1C(=O)C(c2c(-c3ccc4ccccc4c3)[nH]c3[nH]c(=O)[nH]c(=O)c23)c2ccccc21` (configuration not stated) yielded an RP-LC retention time of 721 s.

Compound `CCCCN1C(=O)CC(C(=O)OCC)=C1C` has an RP-LC retention time of 892 s.

`Cc1ccc(Cc2nc(-c3ccc4oc(C)nc4c3)no2)cc1` gave an RP-LC retention time of 1070 s.

With `COc1ccc(-c2noc(-c3ccc(N4CCN(c5ccccc5OC)CC4)nc3)n2)cc1` the RP-LC retention time was 1310 s.

`O=C([C@@H]1C[C@H](F)CN1S(=O)(=O)c1ccc(F)c(F)c1)N1CCCCC1` showed an RP-LC retention time of 780 s.
